Experiment in all cases: inhibition of tumour cell growth, NCI panel, 48 h
For assay [1], the system named is OVCAR-8.
Assay [2] relates to NCI/ADR-RES.
The subject of assay [3] is NCI-H460.
Assay [4] deals with T47D.
Assay [5] deals with HCT-15.
Assay [6] concerns CCRF-CEM.
Assay [7] deals with MOLT-4.
Assay [8] relates to PC-3.
The test system of assay [9] is SF-539.
For assay [10], the system named is SK-OV-3.
Assay [11] deals with SNB-75.
In assay [12] the test system is Hs-578T.
For assay [13], the system named is SK-MEL-28.
Assay [14] concerns A498.
Assay [15] deals with MCF7.
Assay [16] has as its system MDA-N.
The subject of assay [17] is SR.
The subject of assay [18] is HL-60.
Assay [19] concerns MDA-MB-231.
Assay [20] deals with BT-549.

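Growth conditions: 96-well plates. Treatment: test compound, 48 hours, 5 concentrations. Analysis: linear interpolation between bracketing concentrations; unreached endpoints set to highest concentration. GI50 = concentration required for 50% inhibition of growth.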 Activity calls are given as the source filed them. Cut-off read from the data, not from the text of the source: active = GI50 up to about 1.1 µM and inactive = higher. Where only a bound is given, the exact number is not on record here.

Turning to `O=C1O/C(=C\c2ccc(O)cc2)C(c2ccc(O)c(Cl)c2)=C1Cl`, the GI50 in assay [1] was 49.5 µM (inactive); in assay [2] it was 36.2 µM (inactive); in assay [3] it was 30.3 µM (inactive); in [4] it was 59.7 µM (inactive); in assay [5], 50 µM; in [6], 35.7 µM (inactive). For the same compound, the GI50 in assay [7] was 49.7 µM (inactive); in [8], > 100 µM (inactive); in [9], 91.8 µM (inactive); in [10], > 100 µM (inactive); in assay [11], 70 µM (inactive); in assay [12], > 100 µM (inactive). Also, the GI50 was > 100 µM (inactive) in [13]; 33.6 µM (inactive) in assay [14]; 16.6 µM (inactive) in [15]; 23.5 µM (inactive) in assay [16]; 27.7 µM (inactive) in assay [17]; 33 µM (inactive) in [18]. In addition, the GI50 in [19] is 77.4 µM (inactive).
With `Cc1ccc2c(n1)NC(=O)C(Cc1ccccc1)(N=[N+]=[N-])C2=O` (stereo not drawn), the GI50 was > 100 µM (inactive) in assay [1]; > 100 µM (inactive) in assay [2]; > 100 µM (inactive) in [3]; 67 µM (inactive) in assay [4]; > 100 µM in assay [5]; > 100 µM (inactive) in assay [6]. In addition, the GI50 in [7], in assay [8], in assay [9], in assay [10], in assay [20] and in [13] was > 100 µM (inactive) in each case. Also, the GI50 in [14], in assay [15], in assay [16], in assay [17] and in assay [19] was > 100 µM (inactive) in each case.
As for `COC(=O)N1CC2(CO)C3CC=C(C(=O)Nc4ccccc4Br)C2C1C3Br` (stereo not drawn), the GI50 was > 50 µM (inactive) in assay [1]; > 50 µM (inactive) in assay [2]; > 50 µM (inactive) in assay [3]; > 50 µM (inactive) in [4]; > 50 µM in [5]; > 50 µM (inactive) in assay [6]. The GI50 in assay [7], in [8], in assay [9], in assay [10], in assay [11] and in assay [12] was > 50 µM (inactive) in each case. Moreover, the GI50 in [13], in assay [14], in assay [15], in [16], in assay [17] and in [18] was > 50 µM (inactive) in each case. Further, the GI50 in assay [19] was > 50 µM (inactive).
Take `O=c1[nH]nc(Cc2ccc(Cl)cc2)n1/N=C/c1ccco1`: the GI50 in [1] was 66.5 µM (inactive); in assay [2], 96.8 µM (inactive); in assay [3], > 100 µM (inactive); in assay [4], > 100 µM (inactive); in assay [5], > 100 µM; in assay [6], > 100 µM (inactive). Further, the GI50 in [7] is > 100 µM (inactive); in assay [8], > 100 µM (inactive); in [9], 27.4 µM (inactive); in assay [10], 80.2 µM (inactive); in assay [11] it was 28.6 µM (inactive); in assay [20], 40.6 µM (inactive). Further, the GI50 in [13] is > 100 µM (inactive); in assay [14], > 100 µM (inactive); in assay [15], 3.15 µM (inactive); in assay [16] it was > 100 µM (inactive); in assay [17] it was > 100 µM (inactive); in assay [18], > 100 µM (inactive). Besides, in assay [19], the GI50 is 46.1 µM (inactive).
As for `CC(=O)/C(=C/n1c(=S)sc2ccccc21)C(=O)Nc1ccccc1C`, the GI50 was > 100 µM (inactive) in assay [1]; > 100 µM (inactive) in [2]; > 100 µM (inactive) in assay [3]; 40.9 µM (inactive) in assay [4]; > 100 µM in [5]; > 100 µM (inactive) in [7]. Besides, the GI50 in [9], in assay [10], in assay [11], in [20], in assay [13] and in assay [14] was > 100 µM (inactive) throughout. For the same compound, the GI50 is > 100 µM (inactive) in assay [15], > 100 µM (inactive) in assay [16], 31.6 µM (inactive) in assay [18] and > 100 µM (inactive) in assay [19].
As to `N#Cc1c(-c2ccc([N+](=O)[O-])cc2)cc(-c2ccc(Nc3ccnc4cc(Cl)ccc34)cc2)[nH]c1=O`, the GI50 in assay [1] is > 100 µM (inactive); in assay [2] it was > 100 µM (inactive); in assay [3], > 100 µM (inactive); in assay [4], > 100 µM (inactive); in assay [5], > 100 µM; in assay [7], > 100 µM (inactive). Besides, the GI50 in [8], in assay [9], in assay [10], in assay [11], in assay [20] and in [13] was > 100 µM (inactive) throughout. In addition, the GI50 in assay [14], in assay [15], in assay [17], in assay [18] and in [19] was > 100 µM (inactive) in each case.
In the case of `O=C1CN(c2cccc(C(F)(F)F)c2)C(=O)CN1NCNN1CC(=O)N(c2cccc(C(F)(F)F)c2)CC1=O`, the GI50 is > 100 µM (inactive) in [1]; > 100 µM (inactive) in [2]; > 100 µM (inactive) in [3]; > 100 µM (inactive) in assay [4]; > 100 µM in [5]; > 100 µM (inactive) in assay [6]. The GI50 in [7], in [8], in assay [9], in assay [10], in [11] and in [12] was > 100 µM (inactive) in each case. For the same compound, the GI50 in [13], in [15], in assay [16], in [17], in assay [18] and in assay [19] was > 100 µM (inactive) in each case.
For `Cc1ccc(-n2nnc3c(NNc4ccccc4)n[nH]c(=O)c32)cc1`, the GI50 is 49.8 µM (inactive) in assay [1]; 76.7 µM (inactive) in assay [2]; 30.8 µM (inactive) in assay [3]; > 100 µM in assay [5]; 92 µM (inactive) in assay [6]; 44 µM (inactive) in assay [7]. The GI50 in [8] was 78.2 µM (inactive); in assay [9] it was > 100 µM (inactive); in assay [11] it was 36.6 µM (inactive); in assay [20] it was 73.3 µM (inactive); in [13] it was > 100 µM (inactive); in assay [15], 35.3 µM (inactive). For the same compound, the GI50 in assay [17] was > 100 µM (inactive); in [18], 84.7 µM (inactive); in assay [19], 96.8 µM (inactive).
Consider `COc1ccc2c(c1)c1c3c(ccc4ncn2c43)N(CCO)CCN=1`, for which the GI50 was 0.0927 µM (active) in assay [1]; 0.334 µM (active) in [2]; 0.132 µM (active) in [3]; 0.263 µM (active) in assay [4]; 0.195 µM in [5]; 0.0476 µM (active) in assay [6]. For the same compound, the GI50 in [7] is 0.026 µM (active); in [8] it was 0.148 µM (active); in [9] it was 0.0893 µM (active); in [10] it was 0.305 µM (active); in [11], 0.306 µM (active); in assay [12], 0.274 µM (active). Moreover, the GI50 was 0.327 µM (active) in assay [13]; 0.215 µM (active) in assay [14]; 0.189 µM (active) in assay [15]; 0.214 µM (active) in assay [16]; 0.0198 µM (active) in assay [17]; 0.165 µM (active) in assay [18]. The GI50 in assay [19] was 0.183 µM (active).
Take `O=C(N/N=C/c1ccccc1)c1c(-c2cccnc2)cnc2ccccc12`: the GI50 in assay [1] was > 100 µM (inactive); in assay [2], 69.5 µM (inactive); in assay [3] it was 61.1 µM (inactive); in assay [5] it was 48 µM; in assay [6], > 100 µM (inactive); in [7], > 100 µM (inactive). The GI50 in assay [8] is > 100 µM (inactive); in [9], 70.3 µM (inactive); in assay [10] it was 84.5 µM (inactive); in [11], 34.8 µM (inactive); in assay [20], 79.4 µM (inactive); in assay [13] it was > 100 µM (inactive). Also, the GI50 in assay [15] is 48.2 µM (inactive); in [16], 29.2 µM (inactive); in assay [17], 77.1 µM (inactive); in assay [18], 42.9 µM (inactive).
As for `c1ccc2c(c1)CCN2CCN1CCc2ccccc21`, the GI50 in assay [1] was > 10 µM (inactive); in assay [2], > 10 µM (inactive); in assay [3], > 10 µM (inactive); in assay [4], > 10 µM (inactive); in assay [5], > 10 µM; in assay [6], > 10 µM (inactive). The GI50 in assay [7], in [8], in assay [9], in assay [10], in assay [11] and in assay [12] was > 10 µM (inactive) in each case. Further, the GI50 in assay [13], in assay [15], in assay [16], in assay [17], in assay [18] and in assay [19] was > 10 µM (inactive) each time.

The values are drawn from ChEMBL document CHEMBL1201862, “PubChem BioAssay data set” (2004).
